Measured values as given in publication PMC11714206, “Massively Parallel Screening of Toll/Interleukin‐1 Receptor (TIR)‐Derived Peptides Reveals Multiple Toll‐Like Receptors (TLRs)‐Targeting Immunomodulatory Peptides” (Advanced Science, 2024).
Values belong to the substance of their own block, whether it stands above or below them.

Target: T1, MAL^TIR (Homo sapiens, UniProt P58753)
T1 construct: MAL (residues 79–221); 6xHis; made in house; host or cells: E. coli BL21 (DE3)
Assay: T‐Surf phage library (P8 and P3) selection against MAL^TIR, four rounds, NGS read counts
Type: binding
Details: for P8_MAL Rank (after) / P8_MAL Rank (before): P8 library; for P3_MAL Rank (after) / P3_MAL Rank (before): P3 library; for Population: 4th round of selection against MAL TIR, share of NGS reads
Summary of the method: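 Coat TIR domain 5 µg mL^−1 overnight; block 0.2% BSA/PBS 1 h, 4 °C; add phage library 1 h, RT; wash ×4 PBS/0.5% Tween‐20; elute 100 mM HCl, neutralize Tris; amplify in TG1, PEG‐precipitate. Repeat to round 4; barcode PCR, NovaSeq, count reads.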

[1] = 4R selection against MAL, rank after grouping
[2] = 4R selection against MAL, rank before grouping
[3] = P3_MAL: rank by count after grouping
[4] = P3_MAL: rank by count before grouping
[5] = selection against MAL, rank after grouping
[6] = selection against MAL, rank before grouping
[7] = selection against MAL, rank by count after grouping
[8] = selection against MAL, rank by count before grouping
[9] = P8_MAL: rank by count after grouping
[10] = P8_MAL: rank by count before grouping
[11] = P8_MAL pool: P8 T-Surf phage library
[12] = selection against MAL TIR, rank by count after grouping
[13] = selection against MAL TIR, rank by count before grouping
[14] = P3_MAL pool: P3 T-Surf phage library

T1 sequence (P58753 79-221): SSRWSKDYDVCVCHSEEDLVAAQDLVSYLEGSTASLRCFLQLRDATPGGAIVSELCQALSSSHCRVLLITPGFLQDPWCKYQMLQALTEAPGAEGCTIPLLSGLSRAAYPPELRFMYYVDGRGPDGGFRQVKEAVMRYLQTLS

Substance: HFWWIPLKSILGETSF
- P8_MAL Rank (after) [1]: 632
- P8_MAL Rank (before) [2]: 2423

Substance: HHNSSYGEALAEHEKR
- Rank (after) [3]: 167
- Rank (before) [4]: 2817

Substance: KWFWDKLIYALSRIR
- P3_MAL Rank (after) [5]: 545
- P3_MAL Rank (before) [6]: 3495

Substance: RGFLSHLRHHLQAKD
- P3_MAL Rank (after) [1]: 648
- P3_MAL Rank (before) [2]: 2376

Substance: RFYEAQLILVLRNTKM
- P8_MAL Rank (after) [1]: 672
- P8_MAL Rank (before) [2]: 2302

Substance: ESILNQRRPSSQSIAN
- P3_MAL Rank (after) [1]: 595
- P3_MAL Rank (before) [2]: 2071

Substance: LKWGDPRQASKLGYTM
- P3_MAL Rank (after) [7]: 761
- P3_MAL Rank (before) [8]: 2242

Substance: WFFDGLVSLFLGDTKL
- P8_MAL Rank (after) [5]: 537
- P8_MAL Rank (before) [6]: 1112

Substance: AFLCTFLINLTHNTTF
- Rank (after) [9]: 185
- Rank (before) [10]: 1757

Substance: RFFLESLKQLLRSDGR
- Rank (after) [9]: 455
- Rank (before) [10]: 2301

Substance: SSFREGLWHLLELTKT
- P3_MAL Rank (after) [5]: 525
- P3_MAL Rank (before) [6]: 3171

Substance: WFYERLVRLILRDTKV
- Population [11]: 0.00309%

Substance: YVFTGNLHRYLMQLGV
- P3_MAL Rank (after) [5]: 536
- P3_MAL Rank (before) [6]: 1341

Substance: RGFLSHLRHHLQVKEQ
- P3_MAL Rank (after) [7]: 733
- P3_MAL Rank (before) [8]: 2370

Substance: WFYERLLTVIDRDTEV
- P8_MAL Rank (after) [5]: 500
- P8_MAL Rank (before) [6]: 1159

Substance: AFLWTYLSNLMHQPTF
- P8_MAL Rank (after) [5]: 483
- P8_MAL Rank (before) [6]: 1797

Substance: LKVEGWRLALEKAGTL
- P3_MAL Rank (after) [5]: 484
- P3_MAL Rank (before) [6]: 2258

Substance: KLFQQWIELHLHQLHL
- Rank (after) [9]: 436
- Rank (before) [10]: 2724

Substance: NQLRTALTAAANLSGW
- P3_MAL Rank (after) [12]: 267
- P3_MAL Rank (before) [13]: 3324

Substance: RLLKWKEALHQFHSWV
- Population [14]: 0.00451%
- Rank (after) [9]: 115
- Rank (before) [10]: 655

Substance: LFFGASLKQLLRSDGR
- P8_MAL Rank (after) [1]: 580
- P8_MAL Rank (before) [2]: 2134

Substance: GWFLNKLSQLILKKEK
- Population [14]: 0.03%
- Rank (after) [3]: 100
- Rank (before) [4]: 100

Substance: KHSNNDQKWAETASRK
- P3_MAL Rank (after) [7]: 765
- P3_MAL Rank (before) [8]: 3469

Substance: LCFCESLKQLLRSDGR
- Rank (after) [9]: 110
- Rank (before) [10]: 2161

Substance: NQWRNALTAAAKLSGG
- P3_MAL Rank (after) [5]: 564
- P3_MAL Rank (before) [6]: 3384

Substance: LGFLRHLRHHLQAKDH
- P3_MAL Rank (after) [7]: 693
- P3_MAL Rank (before) [8]: 2082

Substance: LNWGDPYFWRKLRYAM
- Rank (after) [3]: 185
- Rank (before) [4]: 2196

Substance: AFFLAQLKSEPTNPTM
- P8_MAL Rank (after) [12]: 272
- P8_MAL Rank (before) [13]: 1581

Substance: RLLKWKEALQQVHSWV
- Rank (after) [3]: 148
- Rank (before) [4]: 2470

Substance: PFLVHQYNEALQADSH
- P8_MAL Rank (after) [7]: 695
- P8_MAL Rank (before) [8]: 2330

Substance: RNFVADLYQALANKGI
- Rank (after) [9]: 131
- Rank (before) [10]: 2186

Substance: YAFTDHLHRYVVQRGV
- P3_MAL Rank (after) [12]: 209
- P3_MAL Rank (before) [13]: 1463

Substance: KEVEGWRDALTQAAN
- P3_MAL Rank (after) [1]: 599
- P3_MAL Rank (before) [2]: 3565

Substance: RNFVAYLFQALAKKGS
- P8_MAL Rank (after) [1]: 591
- P8_MAL Rank (before) [2]: 2191

Substance: YFLHFLLFSRPETVYI
- Population [11]: 0.00309%

Substance: AFCWAQLKSVLGNPTR
- Rank (after) [9]: 123
- Rank (before) [10]: 1781

The next lines start with the values.

- P3_MAL Rank (after) [5]: 532
- P3_MAL Rank (before) [6]: 2672
Substance: PNLRPKVRNYLIRTKT

- P3_MAL Rank (after) [5]: 493
- P3_MAL Rank (before) [6]: 2562
Substance: RPLKWKEALHQFHSRV

- P3_MAL Rank (after) [5]: 533
- P3_MAL Rank (before) [6]: 2303
Substance: LKGESWRQAREKAGKL

- P3_MAL Rank (after) [7]: 706
- P3_MAL Rank (before) [8]: 2352
Substance: RGFLCHLRHHLQATDH

- P8_MAL Rank (after) [5]: 554
- P8_MAL Rank (before) [6]: 1775
Substance: AFLGAQLKSVLGKPTM

- P8_MAL Rank (after) [1]: 659
- P8_MAL Rank (before) [2]: 1999
Substance: DTILKKGEGIAPELLR

- P3_MAL Rank (after) [1]: 634
- P3_MAL Rank (before) [2]: 2753
Substance: PNLSNKVMNYLMRTQT

- Rank (after) [3]: 441
- Rank (before) [4]: 2614
Substance: RNVMSHLYQGLQNRGI

- P8_MAL Rank (after) [1]: 579
- P8_MAL Rank (before) [2]: 2250
Substance: RNYVAYLFQALANTGI

- P3_MAL Rank (after) [5]: 506
- P3_MAL Rank (before) [6]: 2575
Substance: RSFRDRLWRHLQLNEK

- P3_MAL Rank (after) [12]: 250
- P3_MAL Rank (before) [13]: 3687
Substance: KMQKWKDALYEAAKLG

- Rank (after) [3]: 393
- Rank (before) [4]: 1892
Substance: DWFLSKLSQHILKKG

- Population [11]: 0.00309%
Substance: HFFGFN*KAFWAKPAX

- P8_MAL Rank (after) [5]: 538
- P8_MAL Rank (before) [6]: 2102
Substance: LFFWESLKQLLRSVGH

- P8_MAL Rank (after) [12]: 260
- P8_MAL Rank (before) [13]: 2058
Substance: LFFWGSLRQLLRNDDG

- P3_MAL Rank (after) [12]: 239
- P3_MAL Rank (before) [13]: 3510
Substance: KWFWDKLIYPLSRNPQ
